Calls of active or inactive are those of the source. The rule behind the calls is not given here.
What was measured:
[1] = system: HepG2; experiment: Cytotoxicity against human HepG2 cells assessed as cell growth inhibition incubated for 48 hrs by MTT assay; format: functional, cell-based; conditions: HepG2, 48 h
[2] = system: Huh-7; experiment: Cytotoxicity against human Huh-7 cells assessed as cell growth inhibition incubated for 48 hrs by MTT assay; format: functional, cell-based; conditions: Huh-7, 48 h
[3] = system: MHCC97H; experiment: Cytotoxicity against human MHCC97H cells assessed as cell growth inhibition incubated for 48 hrs by MTT assay; format: functional, cell-based
[4] = system: HCCLM3; experiment: Cytotoxicity against human HCCLM3 cells assessed as cell growth inhibition incubated for 48 hrs by MTT assay; format: functional, cell-based; conditions: HCCLM3, 48 h
[5] = system: HCCLM3; experiment: Inhibition of mitochondrial respiratory chain complex I in human HCCLM3 incubated for 24 hrs; format: cell-based
[6] = system: HepG2; experiment: Synergistic cytotoxicity against human HepG2 cells assessed as cell growth inhibition by measuring synergy score at 1 to 16 uM incubated for 48 hrs in presence of sorafenib at 1 to 16 uM by MTT assay; format: functional; conditions: dose 1-16 µM
[7] = system: Huh-7; experiment: Synergistic cytotoxicity against human Huh-7 cells assessed as cell growth inhibition by measuring synergy score at 1 to 16 uM incubated for 48 hrs in presence of sorafenib at 1 to 16 uM by MTT assay; format: functional; conditions: dose 1-16 µM
[8] = system: MHCC97H; experiment: Synergistic cytotoxicity against human MHCC97H cells assessed as cell growth inhibition by measuring synergy score at 1 to 16 uM incubated for 48 hrs in presence of sorafenib at 1 to 16 uM by MTT assay; format: functional; conditions: dose 1-16 µM
[9] = system: HCCLM3; experiment: Synergistic cytotoxicity against human HCCLM3 cells assessed as cell growth inhibition by measuring synergy score at 1 to 16 uM incubated for 48 hrs in presence of sorafenib at 1 to 16 uM by MTT assay; format: functional; conditions: dose 1-16 µM
[10] = system: HepG2; experiment: Synergistic inhibition of mitochondrial function in human HepG2 cells assessed as reduction in intracellular ATP level at 8 uM incubated for 48 hrs in presence of 16 uM sorafenib; format: functional, cell-based
[11] = system: Huh-7; experiment: Synergistic inhibition of mitochondrial function in human Huh-7 cells assessed as reduction in intracellular ATP level at 8 uM incubated for 48 hrs in presence of 16 uM sorafenib; format: functional, cell-based
[12] = system: MHCC97H; experiment: Synergistic inhibition of mitochondrial function in human MHCC97H cells assessed as reduction in intracellular ATP level at 8 uM incubated for 48 hrs in presence of 16 uM sorafenib; format: functional, cell-based
[13] = system: HCCLM3; experiment: Synergistic inhibition of mitochondrial function in human HCCLM3 cells assessed as reduction in intracellular ATP level at 8 uM incubated for 48 hrs in presence of 16 uM sorafenib; format: functional, cell-based
[14] = system: HCCLM3; experiment: Induction of apoptosis in human HCCLM3 cells assessed as necrotic cells at 4 uM incubated for 48 hrs by Annexin V/FITC-PI staining based flow cytometry (reference value: 3.33%); format: functional
[15] = system: HCCLM3; experiment: Induction of apoptosis in human HCCLM3 cells assessed as late apoptotic cells at 4 uM incubated for 48 hrs by Annexin V/FITC-PI staining based flow cytometry (reference value: 0.07%); format: functional
[16] = system: HCCLM3; experiment: Induction of apoptosis in human HCCLM3 cells assessed as early apoptotic cells at 4 uM incubated for 48 hrs by Annexin V/FITC-PI staining based flow cytometry (reference value: 0.05%); format: functional
[17] = system: HCCLM3; experiment: Induction of apoptosis in human HCCLM3 cells assessed as viable cells at 4 uM incubated for 48 hrs by Annexin V/FITC-PI staining based flow cytometry (reference value: 96.55%); format: functional; conditions: read-out: Activity
[18] = system: HCCLM3; experiment: Induction of apoptosis in human HCCLM3 cells assessed as viable cells at 4 uM incubated for 48 hrs in presence of 4uM sorafenib by Annexin V/FITC-PI staining based flow cytometry (reference value: 96.55%); format: functional; conditions: read-out: Activity
[19] = system: HCCLM3; experiment: Induction of apoptosis in human HCCLM3 cells assessed as early apoptotic cells at 4 uM incubated for 48 hrs in presence of 4uM sorafenib by Annexin V/FITC-PI staining based flow cytometry (reference value: 0.05%); format: functional
[20] = system: HCCLM3; experiment: Induction of apoptosis in human HCCLM3 cells assessed as late apoptotic cells at 4 uM incubated for 48 hrs in presence of 4uM sorafenib by Annexin V/FITC-PI staining based flow cytometry (reference value: 0.07%); format: functional
[21] = system: HCCLM3; experiment: Induction of apoptosis in human HCCLM3 cells assessed as necrotic cells at 4 uM incubated for 48 hrs in presence of 4uM sorafenib by Annexin V/FITC-PI staining based flow cytometry (reference value: 3.33%); format: functional
[22] = system: HCCLM3; experiment: Induction of apoptosis in human HCCLM3 cells assessed as apoptotic ratio at 4 uM incubated for 48 hrs in presence of 4uM sorafenib by Annexin V/FITC-PI staining based flow cytometry relative to control; format: functional
[23] = system: HepG2; experiment: Inhibition of mitochondrial function in human HepG2 cells assessed as reduction in ATP production at 8 uM incubated for 48 hrs; format: functional, cell-based
[24] = system: Huh-7; experiment: Inhibition of mitochondrial function in human Huh-7 cells assessed as reduction in ATP production at 8 uM incubated for 48 hrs; format: functional, cell-based
[25] = system: MHCC97H; experiment: Inhibition of mitochondrial function in human MHCC97H cells assessed as reduction in ATP production at 8 uM incubated for 48 hrs; format: functional, cell-based
[26] = system: HCCLM3; experiment: Inhibition of mitochondrial function in human HCCLM3 cells assessed as reduction in ATP production at 8 uM incubated for 48 hrs; format: functional, cell-based

SMILES | IC50 [1] [µM] | IC50 [2] [µM] | IC50 [3] [µM] | IC50 [4] [µM] | inhibition [5] | Activity [6] | Activity [7] | Activity [8] | Activity [9] | also measured
CCCCCCCCCCCC[C@@H](O)[C@H]1CC[C@H]([C@H](O)CCCCC(=O)CCCCC[C@@H](O)CC2=C[C@H](C)OC2=O)O1 [ANNONACINONE] | 15.5 | 15.5 | 15.5 | 15.5 | Active | 3.4 | 3.4 | 3.4 | 3.4 | 
CCCCCCCCCCCC[C@H](O)[C@@H]1CC[C@H]([C@H](O)CCCC[C@@H](O)CCCCC[C@@H](O)CC2=C[C@H](C)OC2=O)O1 | 7.1 | 7.1 | 7.1 | 7.1 | Active | 2.3 | 2.3 | 2.3 | 2.3 | 
CCCCCCCCCCCC[C@H](O)[C@@H]1CC[C@H]([C@H](O)CCCCC(=O)CCCCC[C@@H](O)CC2=C[C@H](C)OC2=O)O1 | 15 | 15 | 15 | 15 | Active | 0.7 | 0.7 | 0.7 | 0.7 | 
CCCCCCCCCC[C@H](O)[C@@H](O)C[C@H](O)[C@@H]1CC[C@@H](CCCCCCCCCC[C@@H](O)CC2=C[C@H](C)OC2=O)O1 | > 50 | > 50 | > 50 | > 50 | Active | 3.7 | 7.1 | 17 | 13.9 | inhibition [10]: Active; inhibition [11]: Active; inhibition [12]: Active; Activity [13]: Active; Activity [14]: 1.36%; Activity [15]: 0.17%; Activity [16]: 1.27%; viability at 4 µM [17]: 97.2%; viability at 4 µM [18]: 80.5%; Activity [19]: 8.66%; Activity [20]: 6.45%; Activity [21]: 4.44%; Activity [22]: 11.6%; inhibition [23]: Active; inhibition [24]: Active; inhibition [25]: Active; inhibition [26]: Active

From ChEMBL document CHEMBL5357027, “Annonaceous Acetogenins Synergistically Inhibit Hepatocellular Carcinoma with Sorafenib” (J Nat Prod, 2024)
